Test results from publication PMC2666046 (Bioorganic & medicinal chemistry letters, 2009).
Converted amounts (≈) assume the structure as drawn. Like-named read-outs stand apart in the source and are kept apart here.

Tests used:
B. anthracis NADS = B. anthracis NADS (Bacillus anthracis, UniProt Q81RP3); assay: biochemical
[1] = system: Bacillus anthracis Sterne; assay: microbe, parasite or virus in culture; type: cell-based; conditions: read-out: B.a. MIC

Sequence of B. anthracis NADS (Q81RP3 whole entry, looked up): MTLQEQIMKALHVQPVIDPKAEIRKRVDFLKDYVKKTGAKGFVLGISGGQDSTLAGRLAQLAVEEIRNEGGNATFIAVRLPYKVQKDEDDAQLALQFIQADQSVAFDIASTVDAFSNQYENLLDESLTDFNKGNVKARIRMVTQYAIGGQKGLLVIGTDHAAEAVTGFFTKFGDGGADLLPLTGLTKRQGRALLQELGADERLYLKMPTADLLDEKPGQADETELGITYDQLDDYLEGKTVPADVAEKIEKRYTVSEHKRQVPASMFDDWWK

N/C(=N\OC(=O)c1ccc(Cl)c(Cl)c1)c1cccc(CSc2ccccn2)c1 [Compound 5775] was tested, and the IC50 (B. anthracis NADS) was 290 µM.

NC(=O)c1ccc(/N=C/c2cc([N+](=O)[O-])ccc2Cl)cc1 [Compound 5679] showed an IC50 (B. anthracis NADS) of 262 µM.

O=C(Cn1cc(/C=C/c2[nH]c(=O)[nH]c(=O)c2[N+](=O)[O-])c2ccccc21)Nc1ccc(F)cc1 [Compound 5615] was tested, and the IC50 (B. anthracis NADS) was 55.4 µM and the IC50 (B. anthracis NADS; read-out: NADs IC50) was 55.4 µM.

COc1ccc(NC(=O)Nc2cccc(NC(=O)Nc3ccc(OC)cc3)c2F)cc1 [Compound 5707] showed an IC50 (B. anthracis NADS) of 253 µM.

O=[N+]([O-])c1ccc(-c2cnc(N/N=C/c3cccc([N+](=O)[O-])c3)nc2)cc1 [Compound 5591] gave an IC50 (B. anthracis NADS) of 160 µM.

O=C(Nc1cccc(/N=C/c2cc([N+](=O)[O-])ccc2O)c1)c1ccc(Cl)cc1Cl [Compound 5691] was tested, and the IC50 (B. anthracis NADS) was 106 µM.

CCc1ccc(S(=O)(=O)Nc2c([N+](=O)[O-])ccc3ccccc23)cc1 [Compound 5599] showed an MIC [1] of 3.75 µM (≈ 1.34 µg/mL).
